Results as given in patent US9221822B2, “Thiazolopyrimidine modulators as immunosuppressive agents” (Katholieke Universiteit Leuven, K.U.Leuven R&D, priority 2009, dated 2015).

What follows are compounds tested on Human peripheral blood mononuclear cells (PBMCs) as Responder cells, RPMI 1788 Stimulator cells (assay: Mixed Lymphocyte Reaction (MLR) test). Conditions: Homo sapiens, RPMI-1788, lowest concentration giving 50% inhibition of the MLR; 6 days coculture, 3H-thymidine incorporation.
Type: cell-based
Description: Human peripheral blood mononuclear cells (PBMCs) were isolated from buffy coats, obtained from healthy blood donors by Ficoll (Lymphoprep, Axis-Shield PoC AS, Oslo, Norway) density-gradient centrifugation. The cells at the Ficoll-plasma interface were washed three times and used as “Responder” cells. RPMI 1788 (ATCC, N^o CCL-156) cells were treated with mitomycin C (Kyowa, Nycomed, Brussel, Belgium) and used as “Stimulator” cells. Responder cells (0.12×10^6), Stimulator cells (0.045×10^6) and compounds (in different concentrations) were cocultured for 6 days in RPMI 1640 medium (BioWhittaker, Lonza, Belgium) supplemented with 10% fetal calf serum, 100 U/ml Geneticin (Gibco, LifeTechnologies, UK). Cells were cultured in triplicate in flat-bottomed 96-well microtiter tissue culture plates (TTP, Switzerland). After 5 days, cells were pulsed with 1 μCi of methyl-^3H thymidine (MP Biomedicals, USA), harvested 18 h later on glass filter paper and counted. Proliferation values were expressed as counts per minute (cpm), and converted to % inhibition with respect to a blank MLR test (identical but without added compound). […]

How did the IC50 turn out when `CCCCCc1nc2c(N3CCN(C(=O)COc4ccc(Cl)cc4)CC3)nc(N)nc2s1` [Example 297, 1-(4-(5-amino-2-pentylthiazolo[5,4-d]pyrimidin-7-yl)piperazin-1-yl)-2-(4-chlorophenoxy)ethanone] was run?
The IC50 was 690 nM.

How did the IC50 turn out when `Nc1nc(N2CCN(C(=O)COc3ccc(Cl)cc3)CC2)c2nc(CCc3ccccc3)sc2n1` [Example 118, 5-amino-7-[4-(4-chlorophenoxyacetyl)piperazin-1-yl]-2-(2-phenylethyl)thiazolo[5,4-d]pyrimidine] was run?
Its IC50 is 860 nM.

Which IC50 does the source give for `Nc1nc(N2CCN(C(=O)COc3ccc(Cl)cc3)CC2)c2nc(CCOc3ccc(F)cc3)sc2n1` [Example 48, 1-(4-(5-amino-2-(2-(4-fluorophenoxy)ethyl)thiazolo[5,4-d]pyrimidin-7-yl)piperazin-1-yl)-2-(4-chlorophenoxy)ethanone] here?
The IC50 was 3540 nM.

`Cc1cccc(OCC(=O)N2CCN(c3nc(N)nc4sc(-c5cccnc5)nc34)CC2)c1` [Example 275, 1-(4-(5-amino-2-(pyridin-3-yl)thiazolo[5,4-d]pyrimidin-7-yl)piperazin-1-yl)-2-(m-tolyloxy)ethanone] was tested. Which IC50 did it give?
The IC50 was 3 nM.

For `Nc1nc(N2CCN(C(=O)OCc3ccccc3)CC2)c2nc(-c3ccc(F)cc3)sc2n1` [Example 40, benzyl-4-(5-amino-2-(4-fluorophenyl)thiazolo[5,4-d]pyrimidin-7-yl)piperazine-1-carboxylate], which IC50 is on record?
Its IC50 is 4900 nM.

How did the IC50 turn out when `Nc1nc(N2CCN(C(=O)COc3cccc(Cl)c3)CC2)c2nc(CCc3ccc(F)cc3)sc2n1` [Example 228, 1-(4-(5-amino-2-(4-fluorophenethyl)thiazolo[5,4-d]pyrimidin-7-yl)piperazin-1-yl)-2-(3-chlorophenoxy)ethanone] was run?
The IC50 was 1720 nM.

Which IC50 does the source give for `Nc1nc(N2CCN(C(=O)COc3ccc(Cl)cc3)CC2)c2nc(C3CC3)[nH]c2n1` [Example 398, 1-(4-(2-amino-8-cyclopropyl-9H-purin-6-yl)piperazin-1-yl)-2-(4-chlorophenoxy)ethanone] here?
The IC50 was 430 nM.

`COc1cccc(CCc2nc3c(N4CCN(C(=O)COc5ccc(Br)cc5)CC4)nc(N)nc3s2)c1` [Example 254, 1-(4-(5-amino-2-(3-methoxyphenethyl)thiazolo[5,4-d]pyrimidin-7-yl)piperazin-1-yl)-2-(4-bromophenoxy)ethanone] was tested. Which IC50 did it give?
Its IC50 is 1220 nM.

For `CCC(c1ccc(F)cc1)c1nc2c(N3CCN(C(=O)COc4ccc(Cl)cc4)CC3)nc(N)nc2s1` (stereo not drawn) [Example 150, 5-amino-2-[1-(4-fluorophenyl)propyl]-7-(4-[2-(4-chlorophenoxy)acetyl]piperazin-1-yl)thiazolo[5,4-d]pyrimidine], which IC50 is on record?
The IC50 was 5390 nM.

`Nc1nc(N2CCN(CC(=O)Nc3cccnc3)CC2)c2nc(-c3ccc(F)cc3)[nH]c2n1` [Example 412, 2-(4-(2-amino-8-(4-fluorophenyl)-9H-purin-6-yl)piperazin-1-yl)-N-(pyridin-3-yl)acetamide] was tested. Which IC50 did it give?
Its IC50 is 8610 nM.

How did the IC50 turn out when `Nc1nc(N2CCN(C(=O)COc3cccc([N+](=O)[O-])c3)CC2)c2nc(CCc3ccc(F)cc3)sc2n1` [Example 131, 5-amino-2-[2-(4-fluorophenyl)ethyl]-7-(4-[2-(3-nitrophenoxy)acetyl]piperazin-1-yl)-thiazolo[5,4-d]pyrimidine] was run?
Its IC50 is 3250 nM.

How did the IC50 turn out when `Nc1nc(N2CCCN(C(=O)COc3ccc(Cl)cc3)CC2)c2cc(-c3ccccc3)sc2n1` [Example 334, 1-(4-(2-amino-6-phenylthieno[2,3-d]pyrimidin-4-yl)-1,4-diazepan-1-yl)-2-(4-chlorophenoxy)ethanone] was run?
The IC50 was 8830 nM.

Which IC50 does the source give for `CC(=O)N1CCN(c2nc(N)nc3[nH]c(-c4ccc(F)cc4)nc23)CC1` [Example 408, 1-(4-(2-amino-8-(4-fluorophenyl)-9H-purin-6-yl)piperazin-1-yl)ethanone] here?
Its IC50 is > 10000 nM.

How did the IC50 turn out when `Nc1nc(N2CCN(C(=O)CCc3ccccc3)CC2)c2nc(-c3ccc(F)cc3)[nH]c2n1` [Example 438, 1-(4-(2-amino-8-(4-fluorophenyl)-9H-purin-6-yl)piperazin-1-yl)-3-phenylpropan-1-one] was run?
Its IC50 is 2580 nM.

For `Nc1nc(N2CCN(Cc3ccc(F)cc3)CC2)c2nc(-c3ccc(F)cc3)[nH]c2n1` [Example 418, 6-(4-(4-fluorobenzyl)piperazin-1-yl)-8-(4-fluorophenyl)-9H-purin-2-amine], which IC50 is on record?
Its IC50 is 9860 nM.

`Nc1nc(N2CCN(C(=O)COc3ccc(F)cc3)CC2)c2nc(-c3ccc(F)cc3)sc2n1` [Example 233, 1-(4-(5-amino-2-(4-fluorophenyl)thiazolo[5,4-d]pyrimidin-7-yl)piperazin-1-yl)-2-(4-fluorophenoxy)ethanone] was tested. Which IC50 did it give?
The IC50 was 74 nM.

With `Nc1nc(N2CCN(c3nccs3)CC2)c2nc(-c3ccc(F)cc3)sc2n1` [Example 36, 2-(4-fluorophenyl)-7-(4-(thiazol-2-yl)piperazin-1-yl)thiazolo[5,4-d]pyrimidin-5-amine] as the compound, how does the IC50 read?
The IC50 was > 10000 nM.

`Nc1nc(N2CCN(CC(=O)N3CCOCC3)CC2)c2nc(-c3ccc(F)cc3)sc2n1` [Example 38, 2-(4-(5-amino-2-(4-fluorophenyl)thiazolo[5,4-d]pyrimidin-7-yl)piperazin-1-yl)-1-morpholinoethanone] was tested. Which IC50 did it give?
The IC50 was 4800 nM.

Which IC50 does the source give for `Nc1nc(N2CCN(C(=O)c3ccc(Cl)cc3)CC2)c2nc(CCc3cccs3)sc2n1` [Example 156, 5-amino-2-(2-thiophen-2-ylethyl)-7-(4-(4-chloro-benzoyl)piperazin-1-yl)thiazolo[5,4-d]pyrimidine] here?
Its IC50 is > 10000 nM.

`Nc1nc(N2CCOCC2)c2nc(Cc3ccc(F)cc3)sc2n1` [Example 34, 2-(4-fluorobenzyl)-7-morpholino-thiazolo[5,4-d]pyrimidin-5-amine] was tested. Which IC50 did it give?
Its IC50 is > 10000 nM.

`Nc1nc(N2CCCN(C(=O)COc3ccc(Cl)cc3)CC2)c2nc(CCc3ccc(F)cc3)sc2n1` [Example 138, 5-amino-2-[2-(4-fluorophenyl)ethyl]-7-(4-[2-(4-chlorophenoxy)acetyl]homopiperazin-1-yl)-thiazolo[5,4-d]pyrimidine] was tested. Which IC50 did it give?
The IC50 was 2100 nM.

`Nc1nc(N2CCN(C(=O)COc3ccc(Cl)cc3)CC2)c2nc(-c3ccccn3)sc2n1` [Example 282, 1-(4-(5-amino-2-(pyridin-2-yl)thiazolo[5,4-d]pyrimidin-7-yl)piperazin-1-yl)-2-(4-chlorophenoxy)ethanone] was tested. Which IC50 did it give?
Its IC50 is 229 nM.

How did the IC50 turn out when `Nc1nc(N2CC[C@@H](NC(=O)c3ccc(Cl)cc3)C2)c2cc(-c3ccc(F)cc3)sc2n1` [Example 341, (R)—N-(1-(2-amino-6-(4-fluorophenyl)thieno[2,3-d]pyrimidin-4-yl)pyrrolidin-3-yl)-4-chlorobenzamide] was run?
Its IC50 is 7230 nM.

With `COC(=O)c1ccc(OCC(=O)N2CCN(c3nc(N)nc4sc(CCc5ccc(F)cc5)nc34)CC2)cc1` [Example 225, methyl 4-(2-(4-(5-amino-2-(4-fluorophenethyl)thiazolo[5,4-d]pyrimidin-7-yl)piperazin-1-yl)-2-oxoethoxy)benzoate] as the compound, how does the IC50 read?
Its IC50 is > 10000 nM.

Which IC50 does the source give for `Nc1nc(N2CCN(C(=O)COc3ccc(Cl)cc3)CC2)c2nc(C3(c4ccccc4)CC3)sc2n1` [Example 114, 5-amino-7-[4-(4-chlorophenoxyacetyl)piperazin-1-yl]-2-(1-phenylcyclopropyl)thiazolo[5,4-d]pyrimidine] here?
The IC50 was 1560 nM.

`Nc1nc(N2CCN(C(=O)COc3cccc(Cl)c3)CC2)c2nc(-c3ccc(F)cc3)sc2n1` [Example 214, 1-(4-(5-amino-2-(4-fluorophenyl)thiazolo[5,4-d]pyrimidin-7-yl)piperazin-1-yl)-2-(3-chlorophenoxy)ethanone] was tested. Which IC50 did it give?
The IC50 was 121 nM.

With `CC(c1ccc(F)cc1)c1nc2c(N3CCN(C(=O)COc4ccc(Cl)cc4)CC3)nc(N)nc2s1` (stereo not drawn) [Example 66, 1-(4-(5-amino-2-(1-(4-fluorophenyl)ethyl)thiazolo[5,4-d]pyrimidin-7-yl)piperazin-1-yl)-2-(4-chlorophenoxy)ethanone] as the compound, how does the IC50 read?
The IC50 was 4380 nM.

For `Cc1cccc(NC(=O)N2CCN(c3nc(N)nc4sc(-c5ccccc5)nc34)CC2)c1` [Example 220, 4-(5-amino-2-phenylthiazolo[5,4-d]pyrimidin-7-yl)-N-m-tolylpiperazine-1-carboxamide], which IC50 is on record?
The IC50 was 170 nM.

`Cc1nc2c(N3CCN(C(=O)COc4ccc(Cl)cc4)CC3)nc(N)nc2[nH]1` [Example 400, 1-(4-(2-amino-8-methyl-9H-purin-6-yl)piperazin-1-yl)-2-(4-chlorophenoxy)ethanone] was tested. Which IC50 did it give?
The IC50 was 450 nM.

`CN(C(=O)CN1CCN(c2nc(N)nc3sc(CCc4ccc(F)cc4)nc23)CC1)c1ccccc1` [Example 139, 5-amino-2-[2-(4-fluorophenyl)ethyl]-7-(4-[(methylphenylcarbamoyl)-methyl]piperazin-1-yl)-thiazolo[5,4-d]pyrimidine] was tested. Which IC50 did it give?
Its IC50 is 3290 nM.

With `C[S+]([O-])c1nc2c(N3CCN(C(=O)COc4ccc(Cl)cc4)CC3)nc(N)nc2s1` (stereo not drawn) [Example 126, 5-amino-7-[4-(4-chlorophenoxyacetyl)piperazin-1-yl]-2-methylsulfinyl-thiazolo[5,4-d]pyrimidine] as the compound, how does the IC50 read?
The IC50 was 2650 nM.

How did the IC50 turn out when `COc1ccc(CNC(=O)N2CCN(c3nc(N)nc4sc(-c5cccnc5)nc34)CC2)cc1` [Example 278, 4-(5-amino-2-(pyridin-3-yl)thiazolo[5,4-d]pyrimidin-7-yl)-N-(4-methoxybenzyl)piperazine-1-carboxamide] was run?
Its IC50 is 80 nM.

Same assay, conditions: lowest concentration giving 50% inhibition of the MLR; 6 days coculture, 3H-thymidine incorporation

`Nc1nc(N2CCN(C(=O)COc3ccc(Cl)cc3)CC2)c2nc(-c3ccc[n+]([O-])c3)sc2n1` [Example 121b, 5-amino-7-[4-(4-chlorophenoxyacetyl)piperazin-1-yl]-2-(N-oxopyridine-3-yl)thiazolo[5,4-d]pyrimidine] was tested. Which IC50 did it give?
The IC50 was 830 nM.
